Earlier results, collected in publication PMC9516332 (Frontiers in Oncology, 2022).
Read-outs that look alike come from different tables or passages of the source.

What was measured:
Conditions in all cases: cited from earlier work
[1] = target: T1, panel of 255 wild-type kinases (Homo sapiens, UniProt O00141)
T1 sequence (O00141 1-431): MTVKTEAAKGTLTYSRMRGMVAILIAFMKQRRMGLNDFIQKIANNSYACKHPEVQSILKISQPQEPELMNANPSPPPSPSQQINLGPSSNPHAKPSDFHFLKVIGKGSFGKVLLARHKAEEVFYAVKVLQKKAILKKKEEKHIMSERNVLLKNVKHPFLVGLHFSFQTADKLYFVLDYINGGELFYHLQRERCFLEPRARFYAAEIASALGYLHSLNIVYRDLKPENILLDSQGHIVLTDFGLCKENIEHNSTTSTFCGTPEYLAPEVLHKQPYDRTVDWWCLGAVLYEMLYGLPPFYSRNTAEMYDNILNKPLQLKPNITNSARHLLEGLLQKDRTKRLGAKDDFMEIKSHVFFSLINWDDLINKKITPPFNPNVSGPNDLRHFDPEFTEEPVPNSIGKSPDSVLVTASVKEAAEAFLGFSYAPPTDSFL

[2] = target: T2, panel of 255 wild-type kinases (Homo sapiens, UniProt O15264)
T2 sequence (O15264 1-365): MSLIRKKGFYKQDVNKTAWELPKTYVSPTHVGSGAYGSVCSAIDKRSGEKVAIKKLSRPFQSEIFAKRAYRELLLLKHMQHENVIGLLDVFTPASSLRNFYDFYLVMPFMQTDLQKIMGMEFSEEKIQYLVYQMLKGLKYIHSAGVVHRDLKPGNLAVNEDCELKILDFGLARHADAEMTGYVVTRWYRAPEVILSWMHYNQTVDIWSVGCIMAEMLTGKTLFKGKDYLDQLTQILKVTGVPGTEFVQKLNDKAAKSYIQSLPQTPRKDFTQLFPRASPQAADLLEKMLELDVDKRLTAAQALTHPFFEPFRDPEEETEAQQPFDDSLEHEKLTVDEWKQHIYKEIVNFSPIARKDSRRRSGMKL

[3] = target: panel of 255 wild-type kinases (Homo sapiens, UniProt O96013)
[4] = target: panel of 255 wild-type kinases (Homo sapiens, UniProt P21802)
[5] = target: T3, panel of 255 wild-type kinases (Homo sapiens, UniProt P42680)
T3 sequence (P42680 1-631): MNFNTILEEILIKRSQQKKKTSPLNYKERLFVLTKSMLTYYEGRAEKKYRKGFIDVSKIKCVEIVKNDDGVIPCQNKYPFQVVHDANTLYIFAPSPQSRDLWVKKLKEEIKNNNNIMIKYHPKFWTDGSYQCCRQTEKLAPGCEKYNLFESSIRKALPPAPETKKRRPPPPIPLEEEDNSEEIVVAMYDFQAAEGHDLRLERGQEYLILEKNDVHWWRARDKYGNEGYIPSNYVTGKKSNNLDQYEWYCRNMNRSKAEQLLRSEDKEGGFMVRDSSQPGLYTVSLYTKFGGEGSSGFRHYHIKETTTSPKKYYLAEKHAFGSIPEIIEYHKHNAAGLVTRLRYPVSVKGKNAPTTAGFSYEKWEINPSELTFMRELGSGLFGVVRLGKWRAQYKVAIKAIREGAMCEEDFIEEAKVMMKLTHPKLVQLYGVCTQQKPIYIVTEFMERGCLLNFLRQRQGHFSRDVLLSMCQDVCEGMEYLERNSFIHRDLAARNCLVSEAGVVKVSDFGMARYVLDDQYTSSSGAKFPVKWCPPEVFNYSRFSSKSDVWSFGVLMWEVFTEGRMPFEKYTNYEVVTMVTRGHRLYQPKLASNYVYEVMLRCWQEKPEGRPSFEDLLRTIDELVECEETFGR

[6] = target: panel of 255 wild-type kinases (Homo sapiens, UniProt P42684)
[7] = target: panel of 255 wild-type kinases (Homo sapiens, UniProt Q15303)
[8] = target: T4, panel of 255 wild-type kinases (Homo sapiens, UniProt Q8TDC3)
T4 sequence (Q8TDC3 1-778): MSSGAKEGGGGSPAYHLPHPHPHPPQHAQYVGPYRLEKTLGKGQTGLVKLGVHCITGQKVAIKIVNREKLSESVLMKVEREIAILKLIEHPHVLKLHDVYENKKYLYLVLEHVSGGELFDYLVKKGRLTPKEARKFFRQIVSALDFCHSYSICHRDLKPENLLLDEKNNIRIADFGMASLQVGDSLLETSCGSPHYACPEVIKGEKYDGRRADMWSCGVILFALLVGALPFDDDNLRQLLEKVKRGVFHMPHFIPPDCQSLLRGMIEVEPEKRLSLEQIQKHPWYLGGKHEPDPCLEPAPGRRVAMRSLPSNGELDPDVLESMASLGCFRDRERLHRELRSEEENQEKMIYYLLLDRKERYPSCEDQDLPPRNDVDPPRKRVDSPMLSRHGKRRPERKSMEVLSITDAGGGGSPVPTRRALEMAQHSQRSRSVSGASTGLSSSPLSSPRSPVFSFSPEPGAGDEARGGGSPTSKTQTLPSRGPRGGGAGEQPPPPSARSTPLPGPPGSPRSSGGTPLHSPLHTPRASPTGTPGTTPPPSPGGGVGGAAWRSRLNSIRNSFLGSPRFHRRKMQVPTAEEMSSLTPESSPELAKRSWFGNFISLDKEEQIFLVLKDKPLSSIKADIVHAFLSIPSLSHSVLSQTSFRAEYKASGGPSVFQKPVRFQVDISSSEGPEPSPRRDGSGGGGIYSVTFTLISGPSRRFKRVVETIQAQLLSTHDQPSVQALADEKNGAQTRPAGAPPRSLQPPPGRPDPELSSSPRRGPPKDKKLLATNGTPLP

[9] = kinase SGK, 1 µmol/L single concentration, ref DOI: 10.1158/1535-7163.MCT-18-0877
[10] = p38δ, 1 µmol/L single concentration, ref DOI: 10.1158/1535-7163.MCT-18-0877
[11] = PAK4, 1 µmol/L single concentration, ref DOI: 10.1158/1535-7163.MCT-18-0877
[12] = kinase FGFR2, 1 µmol/L single concentration, ref DOI: 10.1158/1535-7163.MCT-18-0877
[13] = kinase TEC, 1 µmol/L single concentration, ref DOI: 10.1158/1535-7163.MCT-18-0877
[14] = ARG kinase assay, 1 µmol/L single concentration, ref DOI: 10.1158/1535-7163.MCT-18-0877
[15] = kinase HER4, 1 µmol/L single concentration, ref DOI: 10.1158/1535-7163.MCT-18-0877
[16] = BRSK1 kinase assay, 1 µmol/L single concentration, ref DOI: 10.1158/1535-7163.MCT-18-0877
[17] = kinase SGK, 1 µmol/L single concentration, ref DOI: 10.1371/journal.pone.0092146
[18] = p38δ, 1 µmol/L single concentration, ref DOI: 10.1371/journal.pone.0092146
[19] = PAK4, 1 µmol/L single concentration, ref DOI: 10.1371/journal.pone.0092146
[20] = kinase FGFR2, 1 µmol/L single concentration, ref DOI: 10.1371/journal.pone.0092146
[21] = kinase TEC, 1 µmol/L single concentration, ref DOI: 10.1371/journal.pone.0092146
[22] = ARG kinase assay, 1 µmol/L single concentration, ref DOI: 10.1371/journal.pone.0092146
[23] = kinase HER4, 1 µmol/L single concentration, ref DOI: 10.1371/journal.pone.0092146
[24] = BRSK1 kinase assay, 1 µmol/L single concentration, ref DOI: 10.1371/journal.pone.0092146

SMILES	%-inhibition at 1 µmol/L, SGK [1, 9] [%]	%-inhibition, p38δ [2, 10] [%]	%-inhibition, PAK4 [3, 11] [%]	%-inhibition at 1 µmol/L, FGFR2 [4, 12] [%]	%-inhibition at 1 µmol/L, TEC [5, 13] [%]	%-inhibition ARG [6, 14] [%]	%-inhibition at 1 µmol/L, HER4 [7, 15] [%]	%-inhibition BRSK1 [8, 16] [%]	%-inhibition at 1 µmol/L, SGK [1, 17] [%]	%-inhibition, p38δ [2, 18] [%]	%-inhibition, PAK4 [3, 19] [%]	%-inhibition at 1 µmol/L, FGFR2 [4, 20] [%]	%-inhibition at 1 µmol/L, TEC [5, 21] [%]	%-inhibition ARG [6, 22] [%]	%-inhibition at 1 µmol/L, HER4 [7, 23] [%]	%-inhibition BRSK1 [8, 24] [%]	other results
CC#CC(=O)N1CCC[C@H]1c1nc(-c2ccc(C(=O)Nc3ccccn3)cc2)c2c(N)nccn12 [acalabrutinib]	-5	-1.74	-1.65	-6	96	3.53	78	-1.79									
CCc1cc2c(cc1N1CCC(N3CCOCC3)CC1)C(C)(C)c1[nH]c3cc(C#N)ccc3c1C2=O [alectinib]	12	0.128	6.55	2	1.06	1	34	8.48									
COc1cc(N2CCC(N3CCN(C)CC3)CC2)ccc1Nc1ncc(Cl)c(Nc2ccccc2P(C)(C)=O)n1 [brigatinib]																	%-inhibition at 1 µmol/L, SGK [1]: 4.76%; %-inhibition, p38δ [2]: 0.87%; %-inhibition, PAK4 [3]: 45%; %-inhibition at 1 µmol/L, FGFR2 [4]: 97%; %-inhibition at 1 µmol/L, TEC [5]: 40%; %-inhibition ARG [6]: 55%; %-inhibition at 1 µmol/L, HER4 [7]: 99%; %-inhibition BRSK1 [8]: 84%
Cc1cc(Nc2ncc(Cl)c(Nc3ccccc3S(=O)(=O)C(C)C)n2)c(OC(C)C)cc1C1CCNCC1 [ceritinib]	2	3	13	15	-8	-1.08	51	32									
O=C(c1ccc(F)c(F)c1Nc1ccc(I)cc1F)N1CC(O)([C@@H]2CCCCN2)C1 [cobimetinib]	-19	-6	2	-2.8	-1	-1.54	11	-13									
C[C@@H](Oc1cc(-c2cnn(C3CCNCC3)c2)cnc1N)c1c(Cl)ccc(F)c1Cl [crizotinib]									1.46	-3.41	-5.56	27	1.53	80	-18	12	
CC(C)(C)c1nc(-c2cccc(NS(=O)(=O)c3c(F)cccc3F)c2F)c(-c2ccnc(N)n2)s1 [dabrafenib]									4	-3.43	11	4	38	54	23	37	
C=CC(=O)N1CCC[C@@H](n2nc(-c3ccc(Oc4ccccc4)cc3)c3c(N)ncnc32)C1 [ibrutinib]	-21	-3.68	11	81	92	7	99	-7									
CO[C@@H]1[C@H](N(C)C(=O)c2ccccc2)C[C@H]2O[C@]1(C)n1c3ccccc3c3c4c(c5c6ccccc6n2c5c31)C(=O)NC4 [midostaurin]	31	3.36	30	97	58	25	77										%-inhibition BRSK1 [8]: 95%
C=CC(=O)Nc1cc(Nc2nccc(-c3cn(C)c4ccccc34)n2)c(OC)cc1N(C)CCN(C)C [osimertinib]	-11	-5.38	12	5.56	86	5.35	96	-12									
CC(=O)Nc1cccc(-n2c(=O)n(C3CC3)c(=O)c3c(Nc4ccc(I)cc4F)n(C)c(=O)c(C)c32)c1 [trametinib]									0.217	-2.7	-0.675	-2.64	-7.53	-4	2.34	-6	
CCCS(=O)(=O)Nc1ccc(F)c(C(=O)c2c[nH]c3ncc(-c4ccc(Cl)cc4)cc23)c1F [vemurafenib]									-0.122	8	-7	10	-0.191	7	11	-8	
